Assay results: paper PMC9266460, “KSK-74: Dual Histamine H3 and Sigma-2 Receptor Ligand with Anti-Obesity Potential” (International Journal of Molecular Sciences, 2022)

Tests used:
[1] = Pharmacokinetic study, single i.p. dose, plasma LC-MS/MS; assay type: in vivo, rat; settings: for Tmax / Cmax / CL/F / MRT / half-life / k el / Vd/F: ip; for Tmax / Cmax / CL/F / MRT / half-life / k el / Vz/F (volume of distribution) / Vd/F: rat plasma, single i.p. dose of 10 mg/kg; for Cmax: n = 3, non-compartmental; for CL/F: read-out: CLS/F (clearance) (converted); for MRT: read-out: MRT (mean residence time); for half-life: read-out: t0.5λz (half-life) (converted); for k el: read-out: λz (terminal elimination rate constant) (converted); for Vz/F (volume of distribution) / Vd/F: 10 mg/kg; for Vd/F: rat, plasma, read-out: Vz/F (volume of distribution); for time at which maximal plasma concentration was attained (first sampling point): single i.p. dose of 10 mg/kg b.w.
Experimental: Six rats divided into two experimental groups were used in pharmacokinetic experiments. Three days before the experiment, the rats’ jugular vein was cannulated allowing for multiple blood sampling from a single animal. The investigated compounds were administered i.p. at a single dose of 10 mg/kg. Blood samples (approximately 300 µL) were collected in Eppendorf tubes containing heparin at 5, 15, 30, 60, 120, 240, and 360 min after dosing. Plasma was harvested by centrifuging at 5000× g for 10 min and stored at −30 °C until bioanalysis.
Plasma concentrations of KSK-60 or KSK-74 were measured using the liquid chromatography tandem mass spectrometry (LC-MS/MS) method. The samples (50 μL) were deproteinized in a 1:3 (v/v) ratio with acetonitrile containing an internal standard (IS—pentoxifylline), briefly vortexed, and then centrifuged for 10 min at a speed of 8000× g (Eppendorf miniSpin centrifuge). The supernatant was transferred to autosampler vials and a sample volume of 10 μL was injected into the LC-MS/MS system.
Chromatographic separation was performed on the analytical column XBridge™ C18 (3 × 50 mm, 5 µm, Waters, Dublin, Ireland) using the Agilent 1100 HPLC system (Agilent Technologies, Waldbronn, Germany). The mobile phase containing 0.1% formic acid in acetonitrile and 0.1% formic acid in water was run at 0.3 mL/min in gradient mode. Mass spectrometric detection was performed on an Applied Biosystems MDS Sciex (Concord, ON, Canada) API 2000 triple quadrupole mass spectrometer. Electrospray ionization (ESI) in the positive ion mode was used for ion production. The tandem mass spectrometer was operated at unit resolution in the selected reaction monitoring mode (SRM), monitoring the transitions of the protonated molecular ions m/z 396 to 107 (CE 80 V) for KSK-60, m/z 424 to 107 (CE 80 V) for KSK-74, and m/z 279 to 181 (CE 55 V) for IS. Data acquisition and processing were performed using the Applied Biosystems Analyst version 1.6 software. The calibration curves were constructed by plotting the ratio of the peak area of the studied compound to IS versus drug concentration, and generated by weighted (1/x · x) linear regression analysis. The validated quantitation ranges were from 1 to 2000 ng/mL. The calculated accuracy and precision were within the ranges proposed by the guidelines for the validation of bioanalytical methods (FDA, EMA). No significant matrix effect was observed and there were no stability-related problems during the routine analysis of the samples.
Pharmacokinetic parameters were calculated by employing a non-compartmental approach using Monolix version 2019R1 (Antony, France: Lixoft SAS, 2019) software. The area under the mean plasma concentration versus time curve extrapolated to infinity (AUC0-inf) was estimated using the log/linear trapezoidal rule. AUMC0-inf was estimated by calculating the total area under the first-moment curve by combining the trapezoid calculation of AUMC0-t and the extrapolated area. The mean residence time (MRT) was calculated from AUMC0-inf/AUC0-inf. The terminal rate constant (λz) was calculated by log-linear regression of the drug concentration data in the terminal phase, and the terminal half-life (t1/2) was calculated as 0.693/λz. Clearance (CL/F) was estimated from the administered dose divided by AUC0-inf. The apparent volume of distribution during the terminal phase (Vz/F) was calculated from (CL/F)/λz.

H3 histamine receptor = H3 histamine receptor (Homo sapiens, UniProt Q9Y5N1); assay: Intrinsic activity at H3R, LANCE Ultra cAMP assay; assay type: cell-based
Experimental: Intrinsic activity studies were performed using two methods, Aequoscreen and LANCE Ultra cAMP assays, according to the manufacturer of the ready-to-use cells with stable expressions of the H3 histamine receptor (Perkin Elmer).
The assay is based on the competition between the europium (Eu) chelate-labeled cAMP tracer and sample cAMP for binding sites on cAMP-specific monoclonal antibodies labeled with the ULight dye.

[2] = system: peritoneal adipose tissue; assay: Leptin, resistin, IL-6 and MCP-1 levels in adipose tissue (ELISA); assay type: in vivo, female Wistar rats; settings: for leptin levels in adipose tissue: vs palatable diet + vehicle unless worded otherwise
Experimental: The frozen peritoneal adipose tissue was weighed, and homogenates were prepared by homogenizing 1 g of tissue in 4 mL of 0.1 M phosphate buffer, pH 7.4, using the IKA-ULTRA-TURRAX T8 homogenizer. The adipose tissue homogenates were then used for biochemical assays.
To determine the levels of leptin, resistin, IL-6, and MCP-1 in adipose tissue, the standard ELISA Kit (Cat. No E0561Ra, Cat. No E0211Ra, Cat. No E0135Ra, Cat. No E0193Ra, Bioassay Technology Laboratory, Shanghai, China) was used. To determine the levels of protein, a standard spectrophotometric test (Cat. No 1-008-B210, Biomaxima S.A. Lublin, Poland) was used.

[3] = KSK 10 mg/kg i.p., phentermine 7 mg/kg

Sequence of H3 histamine receptor (Q9Y5N1 whole entry): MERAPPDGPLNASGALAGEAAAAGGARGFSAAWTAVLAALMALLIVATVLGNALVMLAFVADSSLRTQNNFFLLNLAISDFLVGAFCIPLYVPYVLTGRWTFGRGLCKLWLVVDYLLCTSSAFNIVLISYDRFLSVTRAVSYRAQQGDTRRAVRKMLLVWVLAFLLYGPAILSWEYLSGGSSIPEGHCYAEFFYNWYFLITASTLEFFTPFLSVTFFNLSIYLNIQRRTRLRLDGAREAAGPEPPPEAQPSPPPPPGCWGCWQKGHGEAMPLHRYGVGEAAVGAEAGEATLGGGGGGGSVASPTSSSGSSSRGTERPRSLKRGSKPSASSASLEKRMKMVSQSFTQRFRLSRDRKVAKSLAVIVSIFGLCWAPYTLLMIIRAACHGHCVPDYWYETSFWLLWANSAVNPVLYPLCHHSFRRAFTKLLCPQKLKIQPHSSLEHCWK

Row | Tmax [1] [min] | Cmax [1] [ng/mL] | CL/F [1] [mL/min/kg] | MRT [1] [h] | half-life [1] [h] | k el [1] [s⁻¹] | Vz/F (volume of distribution) [1] [L/kg] | Vd/F [1] [L/kg] | time at which maximal plasma concentration was attained (first sampling point) [1] [min] | IC50 (H3 histamine receptor) [nM] | Compound | IL-6 levels in adipose tissue vs palatable diet + vehicle ([2]; 10 mg/kg) | MCP-1 level in adipose tissue vs palatable diet + vehicle ([2]; 10 mg/kg b.w.) | resistin levels in adipose tissue vs palatable diet + vehicle [2, 3] | leptin levels in adipose tissue [2, 3]
1 | 4.98 | 105 | 2180 | 2.45 | 2.71 | 6.94e-05 | 513.14 | 513 | 5 | 23.2 ± 3.6 | CCC(=O)c1ccc(OCCCCCCCCN2CCN(c3ccncc3)CC2)cc1 [KSK-74] | reduced | decreased the level of MCP-1 | reduced levels | reduced levels
2 | 4.98 | 109 | 1170 | 3.28 | 2.7 | 7.22e-05 | 272.63 | 272 | 5 | 0.78 ± 0.1 | CCC(=O)c1ccc(OCCCCCCN2CCN(c3ccncc3)CC2)cc1 [KSK-60] | – | – | – | maintained leptin levels at the same level as rats in the control group fed standard feed
